Laboratory results reported in paper PMC8864165, “Functional Effects of ARV-1502 Analogs Against Bacterial Hsp70 and Implications for Antimicrobial Activity” (Frontiers in Chemistry, 2022).
In brackets after ≈: the same amount, converted by molar mass. Square brackets hold non-standard residues; d marks the D form. Peptide text beside a SMILES is read from it. * marks the point of attachment. 5FAM = O=C1OC2(c3ccc(O)cc3Oc3cc(O)ccc32)c2ccc(C(=O)*)cc21; Ac6c = NC1(C(=O)O)CCCCC1

Legend:
E. coli BW25113 = settings: 25% MHB2, 7.5 × 10^6 cfu/mL, 37°C, 20 h
Experimental: Minimal inhibitory concentrations (MICs) were determined using a liquid broth micro dilution assay in sterile 96-well plates (polystyrene F-bottom, Greiner Bio-One GmbH) and a total volume of 100 μL per well. […] Overnight cultures of bacteria, i.e., E. coli BW25113 or S. aureus DSM 6247, grown in 25% MHB2 were diluted 30-fold in 25% MHB2. After an incubation period of 4 h (37°C, 200 rpm), cells were diluted to 1.5 × 10^7 cfu/mL, based on a McFarland test, and 50 μL were added to each well (final concentration of 7.5 × 10^6 cfu/mL per well). The plates were incubated (37°C, 20 h) and the optical density was determined at 595 nm using the […]™ microplate reader. The MIC was defined as the lowest peptide concentration preventing visible bacterial growth.

E. coli DnaK [1] = target: T1, E. coli DnaK (Escherichia coli, UniProt P0A6Y8); format: binding
T1 construct: His6-tag with TEV site ([…]) (N, cleaved yes); made in house; host or cells: E. coli (DE3) Rosetta pLysS
T1 sequence (P0A6Y8 whole entry): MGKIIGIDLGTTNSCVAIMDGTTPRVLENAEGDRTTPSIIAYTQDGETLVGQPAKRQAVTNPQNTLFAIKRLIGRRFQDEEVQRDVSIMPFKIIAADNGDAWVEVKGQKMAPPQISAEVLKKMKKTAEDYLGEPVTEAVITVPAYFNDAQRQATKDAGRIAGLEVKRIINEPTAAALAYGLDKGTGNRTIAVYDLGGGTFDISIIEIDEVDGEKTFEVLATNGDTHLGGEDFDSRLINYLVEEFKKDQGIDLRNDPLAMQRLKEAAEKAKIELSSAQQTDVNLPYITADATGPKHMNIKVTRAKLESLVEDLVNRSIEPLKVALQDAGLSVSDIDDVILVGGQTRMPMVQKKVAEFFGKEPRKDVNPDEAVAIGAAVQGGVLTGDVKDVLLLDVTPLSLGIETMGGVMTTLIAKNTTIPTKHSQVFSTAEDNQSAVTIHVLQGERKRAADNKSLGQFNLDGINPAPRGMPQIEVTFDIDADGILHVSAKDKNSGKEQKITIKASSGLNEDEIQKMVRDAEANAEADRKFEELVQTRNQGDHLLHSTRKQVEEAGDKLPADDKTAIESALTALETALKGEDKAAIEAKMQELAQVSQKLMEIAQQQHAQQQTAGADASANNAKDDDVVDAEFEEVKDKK
Experimental: The plate was incubated (90 min, 28°C, dark) and Cf-ARV-1502 (80 nmol/L; 10 µL/well) added. […] Each peptide was screened in duplicate. Control samples either lacked the unlabeled peptide (maximum) or contained Cf-ARV-1502 in buffer (minimum).
(§1) The quality of the experimental set up was evaluated by the Z′ factor ([Zhang et al., 1999]) (Supplementary Table S2). […] The obtained FP-values were normalized to the FP-values determined for lead sequence ARV-1502.

E. coli JW0013 ∆dnaK = settings: 25% MHB2, 37°C, 20 h
S. aureus DnaK [2] = target: T2, S. aureus DnaK (Staphylococcus aureus, UniProt P99110); assay: ATPase activity assay (malachite green), DnaK alone; format: biochemical; settings: ARV-1502 concentration series, plateau
T2 construct: His6-tag with TEV site ([…]) (N, cleaved yes); made in house; host or cells: E. coli (DE3) Rosetta pLysS
T2 sequence (P99110 whole entry): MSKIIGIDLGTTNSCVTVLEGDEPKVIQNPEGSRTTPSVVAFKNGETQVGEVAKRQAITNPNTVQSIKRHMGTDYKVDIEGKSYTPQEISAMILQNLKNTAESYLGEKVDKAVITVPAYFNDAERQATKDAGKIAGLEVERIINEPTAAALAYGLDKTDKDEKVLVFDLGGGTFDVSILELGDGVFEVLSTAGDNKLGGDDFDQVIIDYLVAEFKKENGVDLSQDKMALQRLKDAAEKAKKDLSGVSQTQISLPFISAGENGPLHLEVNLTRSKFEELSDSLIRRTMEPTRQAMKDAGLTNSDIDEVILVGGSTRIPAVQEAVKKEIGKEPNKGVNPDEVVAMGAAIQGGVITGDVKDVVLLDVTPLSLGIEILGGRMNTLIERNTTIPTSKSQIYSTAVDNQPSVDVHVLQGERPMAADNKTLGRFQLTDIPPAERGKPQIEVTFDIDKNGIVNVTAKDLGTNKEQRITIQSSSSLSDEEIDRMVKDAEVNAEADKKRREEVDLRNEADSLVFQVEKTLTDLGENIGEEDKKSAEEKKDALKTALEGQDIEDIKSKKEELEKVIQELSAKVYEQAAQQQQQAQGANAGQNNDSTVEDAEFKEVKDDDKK
Experimental: (§2) ATPase activity of E. coli and S. aureus chaperones was studied in the presence of an AMP using a 384-well plate colorimetric assay ([Chang et al., 2008]; [Zahn et al., 2013]). […] Each sample was prepared in triplicates on the same plate. The reaction was started by addition of ATP dissolved in assay buffer (5 µL, 4 mmol/L) and the plate centrifuged (500 × g, 2 min; Allegra™ 21R, Beckmann Coulter, Krefeld, Germany) before incubated (37°C, 2 h). The released phosphate was quantified using an external phosphate dilution series (10–200 µmol/L KH2PO4 in assay buffer) prepared on each plate and treated equally as the samples. The reaction was stopped by adding assay buffer (80 µL) to all samples except the phosphate dilution series. […] After 15 min, the absorbance was recorded at 620 nm on the […]™ microplate reader. […]
(§3) The impact of ARV-1502 and its analogs on the ATPase activity of DnaK was investigated in 384-well plates using the malachite green absorbance assay, which quantitates phosphate (Pi) cleaved from ATP confirming for example the ATPase activity of DnaK. The established assay allowed a robust and reproducible quantitation of phosphate from 10 to 150 µmol/L and was easy to handle (Supplementary Figure S3) providing the intended high-throughput screening. […]

E. coli DnaK [3] = target: T1, E. coli DnaK; assay: as above; format: biochemical; settings: ARV-1502 concentration series, plateau
Experimental: as §2, §3

S. aureus DnaK [4] = target: T2, S. aureus DnaK; assay: Competitive fluorescence polarization Ki; format: binding; settings: unlabeled peptide competing with Cf-labeled peptide; DnaK 16 µmol/L; 90 + 90 min, 28°C
Experimental: as §1

E. coli DnaK [5] = target: T1, E. coli DnaK; assay: Competitive fluorescence polarization Ki; format: binding; settings: unlabeled peptide competing with Cf-labeled peptide; DnaK 5 µmol/L; 90 + 90 min, 28°C
Experimental: as §1

S. aureus DnaK [6] = target: T2, S. aureus DnaK; assay: Fluorescence polarization Kd with Cf-labeled peptide; format: binding
Experimental: (§4) Dissociation (Kd) and inhibitory constants (Ki) were measured using a previously reported protocol with slight modifications ([Krizsan et al., 2015]; [Kolano et al., 2020]). Briefly, black 384-well plates (flat bottom, Greiner Bio-One GmbH, Frickenhausen, Germany) were blocked with 0.5% (w/v) casein in phosphate buffered saline (PBS; 10 mmol/L Na2HPO4, 0.2 mmol/L KH2PO4, 137 mmol/L NaCl, 2.7 mmol/L KCl, pH 7.4) containing 0.05% (w/v) Tween® 20 (PBST) at 4°C overnight and washed three times with PBST. […] The 5 (6)-carboxyfluorescein-labeled peptide was added (20 μL/well, 40 nmol/L), incubated (2 h, 28°C, dark), and the fluorescence polarization recorded at an excitation wavelength (λ ex) of 485 nm and an emission wavelength (λem) of 535 nm using a […] ™ microplate reader (Beckman Coulter, Krefeld, Germany). Ki values were determined using a twofold dilution series of unlabeled peptide (20 µL/well) and DnaK (10 µL/well). The plate was incubated at 28°C in the dark for 90 min before the Cf-labeled peptides were added (10 µL/well, 80 nmol/L). After a second incubation (90 min, 28°C), the fluorescence polarization was recorded (λ ex = 485 nm, λ em = 535 nm). Dissociation and inhibitory constants were calculated by fitting the data with a variable slope parameter [y = min + (max- min)/(1+(x/Kd) ^−Hill slope)] using SigmaPlot 13 (Systat Software Inc., San Jose, CA, United States).

S. aureus DnaK [7] = target: T2, S. aureus DnaK; assay: FP peptide binding screening against Cf-ARV-1502; settings: screening: DnaK 16 µmol/L, unlabeled peptide 35 µmol/L, duplicate, below 1 = better than ARV-1502
S. aureus DnaJ = S. aureus DnaJ (Staphylococcus aureus, UniProt P63971); assay: Fluorescence polarization Kd with Cf-labeled peptide; settings: FP, * = upper plateau not reached, Kd only approximate
S. aureus DnaJ, sequence (P63971 whole entry): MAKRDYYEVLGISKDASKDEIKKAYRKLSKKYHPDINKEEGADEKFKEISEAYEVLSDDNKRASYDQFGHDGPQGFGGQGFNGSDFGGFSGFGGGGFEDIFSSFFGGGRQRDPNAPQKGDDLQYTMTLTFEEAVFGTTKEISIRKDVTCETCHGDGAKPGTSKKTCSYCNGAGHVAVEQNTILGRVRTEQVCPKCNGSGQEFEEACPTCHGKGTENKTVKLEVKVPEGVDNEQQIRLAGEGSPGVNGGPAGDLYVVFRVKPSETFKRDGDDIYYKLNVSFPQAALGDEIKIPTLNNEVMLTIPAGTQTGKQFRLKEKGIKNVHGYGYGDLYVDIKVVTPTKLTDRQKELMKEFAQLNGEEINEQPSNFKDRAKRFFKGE
Experimental: as §4

E. coli DnaK/DnaJ/GrpE = target: T3, E. coli DnaK/DnaJ/GrpE (Escherichia coli, UniProt P0A6Y8); assay: Fluorescence polarization Kd with Cf-labeled peptide, full chaperone system; format: binding; settings: ratio of Kd
T3 construct: made in house; host or cells: E. coli (DE3) Rosetta pLysS
T3 sequence (P0A6Y8 whole entry): as the sequence (P0A6Y8 whole entry) above
Experimental: as §4

E. coli GrpE = E. coli GrpE (Escherichia coli, UniProt P09372); assay: Fluorescence polarization Kd with Cf-labeled peptide; settings: E. coli proteins, ratio of Kd
E. coli GrpE, sequence (P09372 whole entry): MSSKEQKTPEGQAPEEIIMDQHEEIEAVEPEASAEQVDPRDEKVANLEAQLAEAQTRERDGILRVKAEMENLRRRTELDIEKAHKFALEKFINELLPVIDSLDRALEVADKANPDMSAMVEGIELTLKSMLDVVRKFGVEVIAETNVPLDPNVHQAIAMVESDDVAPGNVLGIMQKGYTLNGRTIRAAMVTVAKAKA
Experimental: as §4

E. coli DnaJ = E. coli DnaJ (Escherichia coli, UniProt P08622); assay: as above; settings: E. coli proteins, ratio of Kd
E. coli DnaJ, sequence (P08622 whole entry): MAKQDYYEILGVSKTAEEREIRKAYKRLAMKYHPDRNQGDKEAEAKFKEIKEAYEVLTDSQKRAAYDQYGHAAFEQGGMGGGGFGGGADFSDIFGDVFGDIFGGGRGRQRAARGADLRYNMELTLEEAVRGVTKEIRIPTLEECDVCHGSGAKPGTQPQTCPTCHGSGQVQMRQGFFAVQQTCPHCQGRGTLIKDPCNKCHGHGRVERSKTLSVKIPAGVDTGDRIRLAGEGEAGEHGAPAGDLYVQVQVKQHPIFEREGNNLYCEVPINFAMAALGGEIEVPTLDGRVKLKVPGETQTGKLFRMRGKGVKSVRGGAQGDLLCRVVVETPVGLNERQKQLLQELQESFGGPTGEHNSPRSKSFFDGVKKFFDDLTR
Experimental: as §4

CC(C)C[C@H](NC(=O)[C@H](Cc1ccc(O)cc1)NC(=O)[C@@H]1CCCN1C(=O)[C@H](CCCNC(=N)N)NC(=O)[C@@H]1CCCN1C(=O)[C@H](CCCCN)NC(=O)[C@H](CCCCN)NC(=O)[C@@H]1CCCN1C(=O)[C@H](CCCNC(=N)N)NC(=O)C1(N)CCCCC1)C(=O)N1CCC[C@H]1C(=O)N[C@@H](CC(C)C)C(=O)N1CCC[C@H]1C(=O)N[C@@H](CCCNC(=N)N)C(=O)N1CCC[C@H]1C(=O)N1CCC[C@H]1C(=O)N[C@@H](CCCNC(=N)N)C(=O)N1CCC[C@H]1C(=O)N[C@H](C(=O)N[C@@H](CCCNC(=N)N)C(N)=O)C(C)C [compound 45] (H-[Ac6c]RPKKPRPYLPLPRPPRPVR-NH2)
MIC, E. coli BW25113 (E. coli BW25113): >128 µg/mL | DnaK binding in the screening, in words (E. coli DnaK [1]; FP screening, DnaK variant not stated at the place): best binding | MIC, E. coli JW0013 ∆dnaK (E. coli JW0013 ∆dnaK): >128 µg/mL

CC(C)C[C@H](NC(=O)[C@H](Cc1ccc(O)cc1)NC(=O)[C@@H]1CCCN1C(=O)[C@H](CCCNC(=N)N)NC(=O)[C@@H]1CCCN1C(=O)[C@H](CCCCN)NC(=O)[C@H](CC(=O)O)NC(=O)[C@@H]1CCCN1C(=O)[C@H](CCCNC(=N)N)NC(=O)C1(N)CCCCC1)C(=O)N1CCC[C@H]1C(=O)N[C@@H](CCCNC(=N)N)C(=O)N1CCC[C@H]1C(=O)N[C@@H](CCCNC(=N)N)C(=O)N1CCC[C@H]1C(=O)N1CCC[C@H]1C(=O)N[C@@H](CCCNC(=N)N)C(=O)N1CCC[C@H]1C(=O)N[C@H](C(=O)N[C@@H](CCCNC(=N)N)C(N)=O)C(C)C [ARV-1502] (H-[Ac6c]RPDKPRPYLPRPRPPRPVR-NH2)
stimulation of intrinsic ATPase activity of S. aureus DnaK (S. aureus DnaK [2]): 50% | increase of intrinsic ATPase activity of E. coli DnaK (E. coli DnaK [3]): ~250% | MIC, E. coli JW0013 ∆dnaK (E. coli JW0013 ∆dnaK): 4 to 8 µg/mL

CC(C)C[C@H](NC(=O)[C@H](Cc1ccc(O)cc1)NC(=O)[C@@H]1CCCN1C(=O)[C@H](CCCNC(=N)N)NC(=O)[C@@H]1CCCN1C(=O)[C@H](CCCCN)NC(=O)[C@H](CCCCN)NC(=O)[C@@H]1CCCN1C(=O)[C@H](CCCNC(=N)N)NC(=O)C1(N)CCCCC1)C(=O)N1CCC[C@H]1C(=O)N[C@@H](Cc1ccccc1)C(=O)N1CCC[C@H]1C(=O)N[C@@H](CCCNC(=N)N)C(=O)N1CCC[C@H]1C(=O)N1CCC[C@H]1C(=O)N[C@@H](CCCNC(=N)N)C(=O)N1CCC[C@H]1C(=O)N[C@H](C(=O)N[C@@H](CCCNC(=N)N)C(N)=O)C(C)C [compound 46] (H-[Ac6c]RPKKPRPYLPFPRPPRPVR-NH2)
Ki (S. aureus DnaK [4]): 15.6 µM | Ki (E. coli DnaK [5]): 0.66 µM

CC(C)C[C@H](NC(=O)[C@H](Cc1ccc(O)cc1)NC(=O)[C@@H]1CCCN1C(=O)[C@H](CCCNC(=N)N)NC(=O)[C@@H]1CCCN1C(=O)[C@H](Cc1ccccc1)NC(=O)[C@H](Cc1ccccc1)NC(=O)[C@@H]1CCCN1C(=O)[C@H](CCCNC(=N)N)NC(=O)C1(N)CCCCC1)C(=O)N1CCC[C@H]1C(=O)N[C@@H](CC(C)C)C(=O)N1CCC[C@H]1C(=O)N[C@@H](CCCNC(=N)N)C(=O)N1CCC[C@H]1C(=O)N1CCC[C@H]1C(=O)N[C@@H](CCCNC(=N)N)C(=O)N1CCC[C@H]1C(=O)N[C@H](C(=O)N[C@@H](CCCNC(=N)N)C(N)=O)C(C)C [peptide 102] (H-[Ac6c]RPFFPRPYLPLPRPPRPVR-NH2)
fold lower Kd than lead structure ARV-1502, S. aureus DnaK (S. aureus DnaK [6]; ratio of Kd of Cf-labeled peptides): 20 fold | binding to S. aureus DnaK, FP-value normalized to ARV-1502 (S. aureus DnaK [7]): best binders | binding to E. coli DnaK, FP-value normalized to ARV-1502 (E. coli DnaK [1]): best binders | MIC, E. coli JW0013 ∆dnaK (E. coli JW0013 ∆dnaK): 32 µg/mL (≈ 12.9 µM)

CC(C)C[C@H](NC(=O)[C@H](Cc1ccc(O)cc1)NC(=O)[C@@H]1CCCN1C(=O)[C@H](CCCNC(=N)N)NC(=O)[C@@H]1CCCN1C(=O)[C@H](CCCCN)NC(=O)[C@H](CC(=O)O)NC(=O)[C@@H]1CCCN1C(=O)[C@H](CCCNC(=N)N)NC(=O)C1(NC(=O)c2ccc3c(c2)C(=O)OC32c3ccc(O)cc3Oc3cc(O)ccc32)CCCCC1)C(=O)N1CCC[C@H]1C(=O)N[C@@H](CCCNC(=N)N)C(=O)N1CCC[C@H]1C(=O)N[C@@H](CCCNC(=N)N)C(=O)N1CCC[C@H]1C(=O)N1CCC[C@H]1C(=O)N[C@@H](CCCNC(=N)N)C(=O)N1CCC[C@H]1C(=O)N[C@H](C(=O)N[C@@H](CCCNC(=N)N)C(N)=O)C(C)C [Cf-ARV-1502] (5FAM-[Ac6c]RPDKPRPYLPRPRPPRPVR-NH2)
Kd, S. aureus DnaJ (S. aureus DnaJ): no fit | times weaker binding to S. aureus DnaK than to E. coli DnaK (S. aureus DnaK [6]; ratio of Kd): around 100 times | fold higher Kd for E. coli DnaK/DnaJ/GrpE-system than for DnaK alone (E. coli DnaK/DnaJ/GrpE): 15 fold | fold weaker binding to GrpE than to DnaK (E. coli GrpE): ~1,000 fold | fold weaker binding to DnaJ than to DnaK (E. coli DnaJ): ~150 fold
